The source of these data is the NIST ThermoML archive (doi:10.1016/j.tca.2014.05.028).

± gives the expanded uncertainty stated by the source.

For data set [1] the following is noted: for mass density: 101 kPa, Liquid, Vibrating tube method; for Triple point temperature: DTA.
Data set [2] is described as follows: Molar enthalpy of transition or fusion. The note with it: DSC.

For orientation: mass density means mass per unit of volume. As to `CCCC[N+]1(C)CCCC1.[Br-]` [1-butyl-1-methylpyrrolidinium bromide], the mass density in data set [1] (298.15 K) worked out at 1221.19 ± 2.9 kg/m3; in data set [1] (303.15 K), 1217.27 ± 2.9 kg/m3; in data set [1] (308.15 K), 1213.38 ± 2.8 kg/m3; in data set [1] (313.15 K) it was 1209.51 ± 2.8 kg/m3; in data set [1] (318.15 K) it was 1205.66 ± 2.8 kg/m3; in data set [1] (323.15 K) it was 1201.84 ± 2.8 kg/m3. The mass density is listed as 1198.05 ± 2.8 kg/m3 in data set [1] (328.15 K), 1194.28 ± 2.8 kg/m3 in data set [1] (333.15 K), 1190.53 ± 2.7 kg/m3 in data set [1] (338.15 K) and 1186.8 ± 2.7 kg/m3 in data set [1] (343.15 K). In addition, in data set [1] (Crystal), the Triple point temperature was determined as 487.67 ± 0.41 K. For the same molecule, the “Molar enthalpy of transition or fusion” value in data set [2] (Crystal) was found to be 3.14 ± 0.108 kcal/mol.

Turning to `CCCCC[N+]1(C)CCCC1.[Br-]` [1-methyl-1-pentylpyrrolidinium bromide], the mass density came out at 1188.96 ± 0.4 kg/m3 in data set [1] (298.15 K); 1185.14 ± 0.4 kg/m3 in data set [1] (303.15 K); 1181.35 ± 0.4 kg/m3 in data set [1] (308.15 K); 1177.58 ± 0.4 kg/m3 in data set [1] (313.15 K); 1173.84 ± 0.39 kg/m3 in data set [1] (318.15 K); 1170.12 ± 0.39 kg/m3 in data set [1] (323.15 K). The mass density in data set [1] (328.15 K) is listed as 1166.42 ± 0.39 kg/m3; in data set [1] (333.15 K) it was 1162.75 ± 0.39 kg/m3; in data set [1] (338.15 K), 1159.1 ± 0.38 kg/m3; in data set [1] (343.15 K), 1155.48 ± 0.38 kg/m3. Moreover, the values for the Triple point temperature in data set [1] (Crystal 1) and in data set [1] (Crystal 2) were 431.55 ± 0.41 K and 326.85 ± 0.41 K, respectively. The “Molar enthalpy of transition or fusion” value in data set [2] (Crystal 1) amounted to 2.14 ± 0.0789 kcal/mol; in data set [2] (Crystal 2), 0.466 ± 0.0382 kcal/mol.

Take `CCC[N+]1(C)CCCC1.[Br-]` [1-methyl-1-propylpyrrolidinium bromide]: the mass density in data set [1] (298.15 K) was determined as 1259.96 ± 1.4 kg/m3; in data set [1] (303.15 K), 1255.92 ± 1.4 kg/m3; in data set [1] (308.15 K), 1251.9 ± 1.4 kg/m3; in data set [1] (313.15 K), 1247.91 ± 1.4 kg/m3; in data set [1] (318.15 K), 1243.94 ± 1.4 kg/m3; in data set [1] (323.15 K) it was 1240 ± 1.4 kg/m3. Further, the mass density in data set [1] (328.15 K) amounted to 1236.08 ± 1.4 kg/m3; in data set [1] (333.15 K), 1232.19 ± 1.4 kg/m3; in data set [1] (338.15 K) it was 1228.32 ± 1.3 kg/m3; in data set [1] (343.15 K), 1224.48 ± 1.3 kg/m3. Moreover, the Triple point temperature in data set [1] (Crystal 1) came to 476.68 ± 0.41 K; in data set [1] (Crystal 2) it was 465.12 ± 0.41 K. Also, the entries for the “Molar enthalpy of transition or fusion” value in data set [2] (Crystal 1) and in data set [2] (Crystal 2) were 2.59 ± 0.0908 kcal/mol and 0.698 ± 0.0478 kcal/mol, respectively.
